System: sensitive, MDR and XDR clinical Mtb strains
Assay type: cell-based, Mycobacterium tuberculosis
Settings: panel of MDR and XDR drug resistant clinical Mtb strains

Cc1ccn2c(C(=O)NCc3ccc(Oc4ccc(F)cc4)cc3)c(C)nc2c1 [Compound 18]
potency surpassing that of PA-824: ~10 fold
